The record followed here is US20250387428A1, “PETROLATUM-BASED PHMB COMPOSITIONS AND METHODS FOR THE TREATMENT OF INFLAMMATORY SKIN DISEASE” (priority 2024, published 2025).

The subject of the data set is skin of albino New Zealand White rabbits. Put plainly: Rabbit skin irritation, Primary Irritation Index. The conditions noted are these: sulfate. The procedure: Within 24 hours to 4 hours before test application, the backs of female albino New Zealand White rabbits were clipped free of hair, exposing 2 test and 2 control areas on each side of the spine with a size of approximately 15 cm×15 cm. The two test sites are located on the left cranial section and the right caudal section of the dorsal region. The two control sites are located on the left caudal and right cranial section of the dorsal region. FIG. 4 depicts the arrangement of test and control sites. The exposed skin is wiped with alcohol and dried. Rabbits of acceptable skin quality were selected and used for testing.
A 25×25 mm gauze patch saturated with 0.5 mL of 0.9% NaCl is used for the control and applied to the clipped control sites. The patches are secured using hypoallergenic, waterproof, surgical tape over the test and control sites. The animal's trunk is securely wrapped so as to maintain the position of the patches. Patches are left applied for a minimum of four hours.
After patch removal, the test and control sites were then scored for erythema and edema at 1, 24, 48 and 72 hours after patch removal. Only the 24, 48, and 72 hour observations were scored and used for calculations. If no response was expected, testing was conducted using three animals per test article. If irritation was anticipated, one animal was tested initially. If the first animal received a score of 2 or less for either erythema or edema, 2 additional rabbits were used to conclude the test.
This total was divided by the total number of observations. The same was done for the control sites. […] These scores for each animal were added and divided by the total number of animals to give the Primary Irritation Index. […] For any response, the Maximum Irritation Response, the time of onset of the response and the time of maximum response was recorded.
To positively validate the test, 10% sodium dodecyl sulfate (SDS), which is a known dermal irritant, in petroleum jelly was applied to a 2.5 cm×2.5 cm gauze patch. As a negative control, 0.5 mL of 0.9% NaCl was applied to a 2.5 cm×2.5 cm gauze patch. A Primary Irritation Index in the moderate to severe range is considered a positive result. The test system and methods utilized were the same as described above.

The mark [1] stands for this setting: per rabbit, test sites, 24, 48 and 72 hour observations after patch removal, patch at least four hours.

Several values for one entry are separate records, joined by “and”; a condition that tells them apart may be missing. Identical values can stand only once. Entries after “also recorded” stand apart in the source; their conditions may differ.

For `CCCCCCCCCCCCOS(=O)(=O)[O-].[Na+]` [10% SDS, sodium dodecyl sulfate], the “Total Score Average” value (per rabbit (irritation index for each animal)) was “Total Score Average = 6.6; also recorded: Total Score Average = 7.3; also recorded: Total Score Average = 5.3”. For the same compound, under setting [1], the “ED (edema) score total” value was 19 and 21 and 14; the “ER (erythema) score total” value is 21 and 23 and 18. Moreover, for the setting “per rabbit, test sites, 24, 48 and 72 hour observations”, the “ER + ED = Total” value is 40 and 44 and 32.
